Measurements taken from paper PMC11396129, “Oxindole–benzothiazole hybrids as CDK2 inhibitors and anticancer agents: design, synthesis and biological evaluation” (BMC Chemistry, 2024).

Experiments:
breast cancer = test system: breast cancer; parameters: method as in PMID 16392802; conditions: cited from earlier work
CDK2 = target: T1, CDK2 (Homo sapiens, UniProt P24941); conditions: read-out: CDK2 inhibitory activity IC50; cited from earlier work
T1 construct: purchased BPS Biosciences 79599

**Q.** With O=C(COc1ccccc1-c1nc2ccccc2s1)NN=C1C(=O)Nc2ccc([N+](=O)[O-])cc21 [Compound 9d, 2-(2-(Benzo[d]thiazol-2-yl)phenoxy)-N′-(5-nitro-2-oxoindolin-3-ylidene)acetohydrazide] as the molecule, how does the melting point read?
**A.** Its melting point is 275 to 277 °C.

**Q.** Which “growth inhibitory activity in vitro” value (breast cancer) does the source give for COc1ccc(-c2nc3cc(F)ccc3s2)cc1OC [GW 610 (VII), 2-(3,4-dimethoxyphenyl)-5-fluorobenzothiazole] here?
**A.** Its value is “sub-nanomolar”.

**Q.** With O=C1Nc2ccccc2/C1=C1/Nc2ccccc2/C1=N\O [indirubin-3′-oxime (IV), indirubin-3′-oxime] as the molecule, how does the IC50 (CDK2) read?
**A.** Its IC50 is 440 nM.
